Data reported in US8815946B2, “Inhibition of proliferation and fibrotic response of activated corneal stromal cells” (University of Pittsburgh—of the Commonwealth System of …, priority 2008, dated 2014).

How the values were obtained:
Assay type in all cases: cell-based
[1] = tested on: type III collagen, tenascin and fibronectin; assay: Western blot of TGF-β1 activated rabbit corneal keratocytes: type III collagen, tenascin, fibronectin; conditions: TGF-β1 (10 ng/ml)+1% FBS, two days, compared to controls with no treatment
Protocol: FIGS. 19A and 19B. Western blot analyses: Rabbit corneal keratocytes were isolated and cultured in serum-free DMEM/F12 into 60 mm tissue culture dishes. After 24 hrs of incubation, the media were replaced with DMEM/F12 medium containing TGF-β1(10 ng/ml)+1% FBS without (control) or with EP or EP-derivatives for two days. The cells were extracted in RIPA buffer and the extracts containing 5 μg of total proteins were loaded per lane for Western blot analysis.
Keratocytes or fibroblasts grown under different culture conditions were extracted in RIPA buffer (9.1 mM dibasic sodium phosphate, 1.7 mM monobasic sodium phosphate, 150 mM NaCl, pH, 7.4, 1% Nonidet P-40, 0.5% sodium deoxycholate, 0.1% SDS, 0.03 TIU/mL aprotinin, 1 mM sodium orthovanadate, and 100 μg/mL phenylmethylsulfonyl fluoride (PMSF)). Aliquots of cell extracts containing 50 or 100 μg protein were subjected to SDS-PAGE. Protein bands on SDS-PAGE were electrophoretically transferred to IMMOBILON-P™ membrane (Millipore Corp., Bedford, Mass.), stained with 0.1% Coomassie blue 250 in 40% methanol/1% acetic acid for 1 minute, destained one to three times with 50% methanol/1% acetic acid, scanned for densitometric comparisons of relative concentrations of proteins per lane, destained with methanol, and subjected to Western blot analysis. Immunoreactive bands were detected using chemiluminescence Western chemiluminescence reagents.
As described in Example 1, corneal stromal cells were isolated from rabbit corneas and cultured using the same procedures. The keratocytes in serum free media were treated with b-FGF (40 ng/ml)+HS (5 μg/ml) with or without 15 mM EP or 1, 2.5 or 5 mM following EP derivatives: 2-oxopropionic acid 3-methoxyphenyl ester, 2-oxopropionic acid 2-ethoxyethyl ester, 2-oxopropionic acid 2-chloroethyl ester, 2-oxopropionic acid isopropyl ester, 2-oxopropionic acid butyl ester, 2-oxopropionic acid p-tolyl ester, 2-oxopropionic acid tert-butyl ester. […] The relative levels of the expression of specific proteins were analyzed by Western blot analyses of the cell lysates as described supra.

[2] = tested on: normal human corneal fibroblasts; assay: Cell proliferation analysis, human corneal stromal cells
Protocol: FIGS. 1A-1C. Effect of ethyl pyruvate on the growth of human corneal stromal cells. Corneal stromal cells in P2 growing in DMEM/F12 with 10% FBS were subcultured into desired number of 35 mm tissue culture dishes. After 24 hrs of incubation, the media were replaced with DMEM/F12 medium containing 1% FBS with or without EP (FIG. 1A) or with the same medium containing TGF-β1 or b-FGF/HS with or without EP (FIG. 1B and FIG. 1C, respectively). The cells in several marked regions were counted every 24 hours as described in Methods. The data points are average (±SE) from two separate experiments.
(§1) To study the effect of EP on cell proliferation, normal human corneal fibroblasts growing in DMEM/F12 with 10% FBS were subcultured into the desired number of 35 mm tissue culture dishes at a density of 5×10^4 cells/per dish. […] Several regions were marked on the bottom of the dishes and cells in marked regions were counted at 24 hr intervals for five days. Phase contrast digital micrographs of the cells in the marked fields were captured and the cells in the images were counted using MetaMorph® imaging software. The rate of proliferation was evaluated by determining the number of cells at specific time points after treatment/number of cells at the start of the treatment. […]

[3] = tested on: rabbit corneal stromal cells; assay: Cell proliferation analysis, rabbit corneal stromal cells; conditions: 1% FBS, with TGF-β1 or b-FGF/HS
Protocol: FIG. 2. Effect of ethyl pyruvate on the growth of rabbit corneal stromal cells. Corneal stromal cells in P2 growing in DMEM/F12 with 10% FBS were subcultured into desired number of 35 mm tissue culture dishes. After 24 hrs of incubation, the media were replaced with DMEM/F12 medium containing 1% FBS without EP (labeled “Control), with EP (labeled “Control+EP”); with the same medium containing TGF-β1 without EP (labeled “TGF-β1”) or with EP (labeled “TGF-β1+EP”); or with the same medium containing b-FGF/HS without EP (labeled “FGF/HS”) or with EP (labeled “FGF/HS+EP”). The cells in several marked regions were counted every 24 hours as described in Methods. […]
as §1

## CCOC(=O)C(C)=O [ethyl pyruvate]
[1]
  levels of type III collagen, tenascin and fibronectin (Western blot): reduced levels
[2]; 1% FBS with or without TGF-β1 or b-FGF/HS, 10 mM and 15 mM EP, counted every 24 hours
  cell number: no significant increases in cell number
[2]; 10-20 mM in the medium
  proliferation of human corneal fibroblasts and myofibroblasts: inhibited proliferation
[3]
  proliferation of rabbit stromal cells: inhibited proliferation
